Target: T1, human DGAT2 (Homo sapiens, UniProt Q96PD7)
T1 construct: FLAG (DYKDDDDK); made in house; host or cells: Sf-21 insect cells (BacPAK baculovirus system); membrane fraction used
T1 sequence (Q96PD7 1-388): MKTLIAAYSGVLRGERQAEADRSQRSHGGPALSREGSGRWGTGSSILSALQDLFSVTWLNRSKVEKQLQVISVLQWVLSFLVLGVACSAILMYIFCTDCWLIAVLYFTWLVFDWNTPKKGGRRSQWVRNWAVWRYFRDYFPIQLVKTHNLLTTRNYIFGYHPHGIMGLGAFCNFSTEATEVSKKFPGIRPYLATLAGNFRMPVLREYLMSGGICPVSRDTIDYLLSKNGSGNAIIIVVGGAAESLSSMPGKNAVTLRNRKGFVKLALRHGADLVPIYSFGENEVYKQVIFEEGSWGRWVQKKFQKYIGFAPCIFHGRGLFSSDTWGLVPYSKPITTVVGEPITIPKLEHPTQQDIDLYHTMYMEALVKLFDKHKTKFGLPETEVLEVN
Assay: DGAT2 enzyme activity inhibition, Phospholipid FlashPlate SPA
Type: biochemical
Details: recombinant human DGAT2 membrane protein from Sf-21 cells; inhibition of [14C]-TG production; 37° C.
Method in brief: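 Sf-21 membranes expressing recombinant human DGAT2 (2 μg) preincubated with compound (3 nM–10 μM, 1% DMSO) and 50 μM 1,2 sn-oleoyl glycerol, 20 min at 37 °C, then 1 μM [14C]oleoyl-CoA for 15 min. [14C]-TG counted by SPA; inhibition as % of untreated.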

Row | SMILES | IC50
1 | CCOc1cccnc1O[C@@H]1CCCN(c2cncc(Nc3ccc(F)c(-c4cc(CC(C)(C)C(=O)O)ccc4F)n3)n2)C1 [Example 106, (R)-3-(3-(6-((6-(3-((3-ethoxypyridin-2-yl)oxy)piperidin-1-yl)pyrazin-2-yl)amino)-3-fluoropyridin-2-yl)-4-fluorophenyl)-2,2-dimethylpropanoic Acid] | 490 nM
2 | CCOc1ccccc1O[C@@H]1CCCN(c2cncc(Nc3nc(-c4cc(CC(C)(C)C(=O)O)ccc4F)ccc3F)n2)C1 [Example 107, (R)-3-(3-(6-((6-(3-(2-ethoxyphenoxy)piperidin-1-yl)pyrazin-2-yl)amino)-5-fluoropyridin-2-yl)-4-fluorophenyl)-2,2-dimethylpropanoic Acid] | 260 nM
3 | CCOc1cccnc1O[C@@H]1CCCN(c2cncc(Nc3nc(-c4cc(CC(C)(C)C(=O)O)ccc4F)ccc3F)n2)C1 [Example 108, (R)-3-(3-(6-((6-(3-((3-ethoxypyridin-2-yl)oxy)piperidin-1-yl)pyrazin-2-yl)amino)-5-fluoropyridin-2-yl)-4-fluorophenyl)-2,2-dimethylpropanoic Acid] | 350 nM
4 | CCOc1ccccc1O[C@@H]1CCCN(c2cncc(Nc3ccc(C(F)(F)F)c(-c4ccc(C(C)(C)C(=O)O)cc4)n3)n2)C1 [Example 109, (R)-2-(4-(6-((6-(3-(2-ethoxyphenoxy)piperidin-1-yl)pyrazin-2-yl)amino)-3-(trifluoromethyl)pyridin-2-yl)phenyl)-2-methylpropanoic Acid] | 1500 nM
5 | CCOc1ccccc1O[C@@H]1CCCN(c2cncc(Nc3cc(C(F)(F)F)cc(-c4cccc(CC(C)(C)C(=O)O)c4)n3)n2)C1 [Example 110, (R)-3-(3-(6-((6-(3-(2-ethoxyphenoxy)piperidin-1-yl)pyrazin-2-yl)amino)-4-(trifluoromethyl)pyridin-2-yl)phenyl)-2,2-dimethylpropanoic Acid] | 170 nM
6 | CCOc1ccccc1O[C@@H]1CCCN(c2cncc(Nc3ccc(C)c(-c4cccc(CC(C)(C)C(=O)O)c4)n3)n2)C1 [Example 111, (R)-3-(3-(6-((6-(3-(2-ethoxyphenoxy)piperidin-1-yl)pyrazin-2-yl)amino)-3-methylpyridin-2-yl)phenyl)-2,2-dimethylpropanoic Acid] | 2200 nM
7 | CCOc1ccccc1O[C@@H]1CCCN(c2cncc(Nc3cncc(-c4cccc(CC(C)(C)C(=O)O)c4)n3)n2)C1 [Example 112, (R)-3-(3-(6-((6-(3-(2-ethoxyphenoxy)piperidin-1-yl)pyrazin-2-yl)amino)pyrazin-2-yl)phenyl)-2,2-dimethylpropanoic Acid] | 200 nM
8 | CCOc1ccccc1O[C@@H]1CCCN(c2cncc(Nc3ncc(C(=O)O)cn3)n2)C1 [Example 114, (R)-2-((6-(3-(2-ethoxyphenoxy)piperidin-1-yl)pyrazin-2-yl)amino)pyrimidine-5-carboxylic Acid] | > 10000 nM
9 | CCOc1cccnc1O[C@@H]1CCCN(c2ccnc(Nc3nccc(C(C)(C)C(=O)O)n3)n2)C1 [Example 116] | 410 nM
10 | CCOc1ccccc1O[C@@H]1CCCN(c2cncc(Nc3nccc(N4CCC[C@H]4C(=O)O)n3)n2)C1 [Example 117, (2-((6-((R)-3-(2-ethoxyphenoxy)piperidin-1-yl)pyrazin-2-yl)amino)pyrimidin-4-yl)-L-proline] | > 10000 nM
11 | CCOc1ccccc1O[C@@H]1CCCN(c2cncc(Nc3nccc(N4CCC(C(=O)O)C4)n3)n2)C1 (stereo partly drawn) [Example 118, 1-(2-((6-((R)-3-(2-ethoxyphenoxy)piperidin-1-yl)pyrazin-2-yl)amino)pyrimidin-4-yl)pyrrolidine-3-carboxylic Acid] | 2000 nM
12 | CCOc1ccccc1O[C@@H]1CCCN(c2cncc(Nc3nccc(N4CCCC(C(=O)O)C4)n3)n2)C1 (stereo partly drawn) [Example 120, 1-(2-((6-((R)-3-(2-ethoxyphenoxy)piperidin-1-yl)pyrazin-2-yl)amino)pyrimidin-4-yl)piperidine-3-carboxylic Acid] | 890 nM
13 | CCOc1ccccc1O[C@@H]1CCCN(c2cncc(Nc3nccc(N4CCC[C@@H](C(=O)O)C4)n3)n2)C1 [Example 121, (R)-1-(2-((6-((R)-3-(2-ethoxyphenoxy)piperidin-1-yl)pyrazin-2-yl)amino)pyrimidin-4-yl)piperidine-3-carboxylic Acid] | 590 nM
14 | CCOc1ccccc1O[C@@H]1CCCN(c2cncc(Nc3nccc(N4CCCC(C)(C(=O)O)C4)n3)n2)C1 (stereo partly drawn) [Example 122, 1-(2-((6-((R)-3-(2-ethoxyphenoxy)piperidin-1-yl)pyrazin-2-yl)amino)pyrimidin-4-yl)-3-methylpiperidine-3-carboxylic Acid] | 6100 nM
15 | CCOc1ccccc1O[C@@H]1CCCN(c2cncc(Nc3nccc(N4CCC(C(=O)O)CC4)n3)n2)C1 [Example 123, (R)-1-(2-((6-(3-(2-ethoxyphenoxy)piperidin-1-yl)pyrazin-2-yl)amino)pyrimidin-4-yl)piperidine-4-carboxylic Acid] | 5500 nM
16 | CCOc1ccccc1O[C@@H]1CCCN(c2cncc(Nc3nccc(C4CC5CC4CC5C(=O)O)n3)n2)C1 (stereo partly drawn) [Example 124, 5-(2-((6-((R)-3-(2-ethoxyphenoxy)piperidin-1-yl)pyrazin-2-yl)amino)pyrimidin-4-yl)bicyclo[2.2.1]heptane-2-carboxylic Acid] | 340 nM
17 | CCOc1ccccc1O[C@@H]1CCCN(c2cncc(Nc3nccc(N4CCC(CC(=O)O)CC4)n3)n2)C1 [Example 125, (R)-2-(1-(2-((6-(3-(2-ethoxyphenoxy)piperidin-1-yl)pyrazin-2-yl)amino)pyrimidin-4-yl)piperidin-4-yl)acetic Acid] | 1800 nM
18 | CCOc1ccccc1O[C@@H]1CCCN(c2cncc(Nc3nccc(N4CCC(C(C)(C)C(=O)O)CC4)n3)n2)C1 [Example 126, (R)-2-(1-(2-((6-(3-(2-ethoxyphenoxy)piperidin-1-yl)pyrazin-2-yl)amino)pyrimidin-4-yl)piperidin-4-yl)-2-methylpropanoic Acid] | 800 nM
19 | CCOc1ccccc1O[C@@H]1CCCN(c2cncc(Nc3nccc(N4CCN(CC(=O)O)CC4)n3)n2)C1 [Example 127, (R)-2-(4-(2-((6-(3-(2-ethoxyphenoxy)piperidin-1-yl)pyrazin-2-yl)amino)pyrimidin-4-yl)piperazin-1-yl)acetic Acid] | 2900 nM
20 | CCOc1ccccc1O[C@@H]1CCCN(c2cncc(Nc3nccc(N4CCC[C@@H](CC(=O)O)C4)n3)n2)C1 [Example 128, 2-((S)-1-(2-((6-((R)-3-(2-ethoxyphenoxy)piperidin-1-yl)pyrazin-2-yl)amino)pyrimidin-4-yl)piperidin-3-yl)acetic Acid] | 160 nM
21 | CCOc1ccccc1O[C@@H]1CCCN(c2cncc(Nc3nccc(N4CCC[C@@H](/C=C/C(=O)O)C4)n3)n2)C1 [Example 129, (E)-3-((S)-1-(2-((6-((R)-3-(2-ethoxyphenoxy)piperidin-1-yl)pyrazin-2-yl)amino)pyrimidin-4-yl)piperidin-3-yl)acrylic Acid] | 800 nM
22 | CCOc1ccccc1O[C@@H]1CCCN(c2cncc(Nc3nccc(N4CCC[C@@H](CCC(=O)O)C4)n3)n2)C1 [Example 130, 3-((S)-1-(2-((6-((R)-3-(2-ethoxyphenoxy)piperidin-1-yl)pyrazin-2-yl)amino)pyrimidin-4-yl)piperidin-3-yl)propanoic Acid] | 2100 nM
23 | CCOc1ccccc1O[C@@H]1CCCN(c2cncc(Nc3nccc(N4CCC[C@H](OCC(=O)O)C4)n3)n2)C1 [Example 131, 2-(((S)-1-(2-((6-((R)-3-(2-ethoxyphenoxy)piperidin-1-yl)pyrazin-2-yl)amino)pyrimidin-4-yl)piperidin-3-yl)oxy)acetic Acid] | > 10000 nM
24 | CCOc1ccccc1O[C@@H]1CCCN(c2cncc(Nc3nccc(N4CCC[C@@H](OCC(=O)O)C4)n3)n2)C1 [Example 132, 2-(((R)-1-(2-((6-((R)-3-(2-ethoxyphenoxy)piperidin-1-yl)pyrazin-2-yl)amino)pyrimidin-4-yl)piperidin-3-yl)oxy)acetic Acid] | 6700 nM
25 | CCOc1ccccc1O[C@@H]1CCCN(c2cncc(Nc3nccc(N4CCC[C@@H](OC(C)(C)C(=O)O)C4)n3)n2)C1 [Example 133, 2-(((R)-1-(2-((6-((R)-3-(2-ethoxyphenoxy)piperidin-1-yl)pyrazin-2-yl)amino)pyrimidin-4-yl)piperidin-3-yl)oxy)-2-methylpropanoic Acid] | 3600 nM
26 | CCOc1cccnc1O[C@@H]1CCCN(c2cncc(Nc3nccc(O[C@H]4CC[C@H](C(=O)O)CC4)n3)n2)C1 [Example 136, (1R,4r)-4-((2-((6-((R)-3-((3-ethoxypyridin-2-yl)oxy)piperidin-1-yl)pyrazin-2-yl)amino)pyrimidin-4-yl)oxy)cyclohexane-1-carboxylic Acid] | 300 nM
27 | CCOc1cccnc1O[C@@H]1CCCN(c2cncc(Nc3nccc(O[C@H]4CC[C@@H](C(=O)O)CC4)n3)n2)C1 [Example 138, (1S,4s)-4-((2-((6-((R)-3-((3-ethoxypyridin-2-yl)oxy)piperidin-1-yl)pyrazin-2-yl)amino)pyrimidin-4-yl)oxy)cyclohexane-1-carboxylic Acid] | 780 nM
28 | CCOc1ccccc1O[C@@H]1CCCN(c2cncc(Nc3nccc(-c4cccc(C(=O)O)n4)n3)n2)C1 [Example 139, (R)-6-(2-((6-(3-(2-ethoxyphenoxy)piperidin-1-yl)pyrazin-2-yl)amino)pyrimidin-4-yl)picolinic Acid] | > 10000 nM
